Data set [1] is described as follows: Plasma and brain concentrations (PK) in healthy mice after oral dosing. It counts as in vivo, Nu/Nu mice. To be noted: 30 mg/kg, oral; for Kp / Cmax / AUC(0-inf) / AUC(0-t): male, Nu/Nu, mouse, po; for Kp: brain/plasma; for Cmax / AUC(0-inf) / AUC(0-t): plasma; for AUC(0-inf): read-out: AUCInf, plasma; for AUC(0-t): read-out: AUCLast, plasma. The method, then:
Healthy male Nu/Nu mice were treated orally with either (i) a single dose of 30 mg/kg Compound of formula (I) ([…], 3 mice per time-point), (ii) 30 mg/kg of Compound of formula (I) given once a day for four consecutive days (27 mice in total, 3 mice per time-point), (iii) 30 mg/kg of AZD-1775 (adavosertib, purchased from Combi-Blocks, San Diego, USA) given twice a day for three consecutive days and once on day four (27 mice in total, 3 mice per time-point), (iv) or 80 mg/kg of Zn-c3 (purchased from EOS Med Chem, Jina City, China) given once a day for four consecutive days (27 mice in total, 3 mice per time-point). The doses used for each compound have previously been reported as active dose levels. Compound of formula (I) was formulated as a suspension in 0.5% methylcellulose with 1% Tween 80 and administered at a concentration of 3.0 mg/mL. […] The dosing volume of all formulations was 10 mL/kg. At designated time-points the mice were euthanized by carbon dioxide inhalation, blood samples were collected by cardiac puncture into K2EDTA containing tubes. The tubes were inverted several times, placed on ice and centrifuged within 30 min of collection (4° C. for 5 min at 6000 rpm) to obtain plasma. The plasma samples were snap frozen in dry ice and stored at −80° C. until analysis. The brain was collected, weighed and snap frozen in dry ice until further analysis. To obtain brain homogenates, firstly water was added to each brain (brain weight:water volume=1:4) then the brain was homogenized with a H-speed dispersator (time procedure: homogenizing for 10 s and interval of 10 s per time, total 3-5 times; cleaning procedure for dispersator: Water-Methanol-Ethanol-Water, 10 s each). The brain homogenate samples were transferred to individual tubes and stored at −80° C. prior to analysis. The mouse plasma and brain samples were analysed as follows. For each analytical batch of plasma and brain samples, the standard and quality control (QC) samples were freshly prepared in blank male Nu/Nu mouse plasma (with K2EDTA anticoagulant) and brain homogenate. To an aliquot of each standard, QC, control blank and study samples, internal standard (^13CD6-Compound of formula (I) for Compound of formula (I), terfenadine for AZD-1775 and Zn-c3) in methanol/acetonitrile (1:1, v/v) was added. The samples were mixed for 1 minute and centrifuged at 4000 rpm at 4° C. for 15 minutes. Supernatants were transferred and diluted in MeOH/water (1:1, v/v, with 0.1% FA) prior to LC-MS/MS injection. Chromatographic separation was achieved on an Shimadzu LC-20AD using a Kinetex 2.6μ C18 100A column (50 mm*3.00 mm) for Compound of formula (I) and AZD-1775 samples and a ACE 5 C4 column (50 mm*2.1 mm) for Zn-c3 samples with gradient elution using the following conditions: flow rate: 0.7 mL/min; run time: 3.0 min; mobile phase: A: 5 mM NH4OAc (0.1% FA), B: Acetonitrile (0.1% FA). Detection was accomplished with an AB Sciex 5500 utilizing electrospray MS/MS in positive ion multiple reaction monitoring mode (MRM). The MRM channels were 511.29/98 for Compound of formula (I), 501.47/442.20 for AZD-1775 and 527.36/468.10 for Zn-c3. The MRM channels of internal standard were 518.17/102.10 (^13CD6-Compound of formula (I)) for Compound of formula (I), 472.40/436.40 (terfenadine) for AZD-1775 and Zn-c3. The measured plasma and brain concentrations at each time-point, the nominal sample collection time, and intended dosages were used for pharmacokinetic analysis. The PK parameters of all study compounds were determined by non-compartmental analysis using WinNonlin Version 8.0 (Pharsight).

Data set [2] concerns SNB-19 GBM cell line. In words: Colony formation with radiotherapy, SNB-19. It counts as cell-based. Particulars: SNB19; 0.1 μM to 5.0 μM; irradiated at 1, 2 and 4 Gy; p<0.0001. The method, then:
GBM tumor cells (T98G, LN18, SNB-19 and U251) were grown as an adherent monolayer at 37° C. in a humidified atmosphere (5% CO2, 95% air). For experimental use, tumor cells were detached from culture flasks by a 5-minute treatment with trypsin-versene, in Hanks' medium without calcium or magnesium and neutralized by addition of complete culture medium. Cells were counted and viability assessed using a 0.25% trypan blue exclusion assay. All cell lines were appropriately seeded following the conditions for monolayer colony formation in 6-well plates (Ref #152795, Nunc, Dutscher) in 1.9 ml of cell culture medium, at 3 densities for evaluation of a proclonogenic effect. […]
Treatments were performed at 24 hours (D1) after seeding by addition of ×20 concentrated compound or vehicle solutions, to obtain final concentrations of 0.1 μM to 5.0 μM of Compound of formula (I) [referred to as CoF (I) in FIG. 3]. […] After 14 days of incubation, colonies were counted after being stained through incubation with 500 μl of a solution of water containing 0.05% (w/v) of methylene blue (Ref. M4159, Sigma) for 2 hours. Colonies were counted using a colony counter pen (Ref #045855, Dutscher, Brumath, France). The Surviving Fraction was calculated for each condition using the equations described below and plotted on a semi-logarithmic graph using the Linear-Quadratic model. […]

The record followed here is US20260256790A1, “DEBIO-0123 IN COMBINATION WITH TEMOZOLOMIDE AND RADIOTHERAPY FOR USE IN TREATING GLIOMA” (Debiopharm International S.A., priority 2023, published 2026).

Where two headings read alike, the source gives them in different places.

Turning to `Cc1cc(Nc2ncc3c(n2)N(C)CN(c2c(Cl)cccc2Cl)C3=O)ccc1C1CCN(C)CC1` [Compound of formula (I)], the “AUCInf, brain” value in data set [1] (qd for four days, day 4) stood at 31763 ng·h/g; in data set [1] (single dose, day 1) it was 37471 ng·h/g. For the same compound, the “AUCLast, brain” value was found to be 31610 ng·h/g in data set [1] (qd for four days, day 4) and 37368 ng·h/g in data set [1] (single dose, day 1). In addition, the “Cmax, brain” value in data set [1] (qd for four days, day 4) amounted to 1963 ng/g; in data set [1] (single dose, day 1), 3557 ng/g. Besides, the Kp came out at 0.489 in data set [1] (qd for four days, day 4, read-out: Brain to plasma ratio based on AUCInf); 0.488 in data set [1] (qd for four days, day 4, read-out: Brain to plasma ratio based on AUCLast); 0.498 in data set [1] (qd for four days, day 4, read-out: Brain to plasma ratio based on Cmax); 0.44 in data set [1] (single dose, day 1, read-out: Brain to plasma ratio based on AUCInf); 0.439 in data set [1] (single dose, day 1, read-out: Brain to plasma ratio based on AUCLast); 0.505 in data set [1] (single dose, day 1, read-out: Brain to plasma ratio based on Cmax). Moreover, the highest concentration (Cmax) in data set [1] (qd for four days, day 4) stood at 3940 ng/mL; in data set [1] (single dose, day 1), 7040 ng/mL. For the same compound, the AUC(0-inf) in data set [1] (qd for four days, day 4) was 65000 ng·h/mL; in data set [1] (single dose, day 1), 85200 ng·h/mL. Also, the AUC(0-t) in data set [1] (qd for four days, day 4) was 64800 ng·h/mL; in data set [1] (single dose, day 1), 85100 ng·h/mL. Further, the “Effect on radiotherapy (surviving fraction, colony formation)” value in data set [2] is on record as “significantly increased effect of radiotherapy”.

As usually defined, the Cmax is the maximum level reached in the sampled fluid or tissue.
